According to patent publication US10323007B1, “N2N N4-disubstituted quinazoline-2,4-diamines and uses thereof” (University of South Florida, priority 2016, dated 2019):
≈ marks a conversion by molar mass, not a printed value. Read-outs that look alike come from different tables or passages of the source.

Tests used:
A. baumannii 1650 [1] = assay: MIC assay, strain 1650; format: cell-based, Acinetobacter baumannii; conditions: Acinetobacter baumannii, strain 1650
Experimental: (§1) MIC and MBC assays were performed in this study as documented by us previously.^17,23,24,25 The A. baumannii strains used are detailed in Table 7.

A. baumannii 1403 [2] = assay: MIC assay, strain 1403; format: cell-based, Acinetobacter baumannii; conditions: Acinetobacter baumannii, strain 1403
Experimental: as §1

A. baumannii 1646 [3] = assay: MIC assay, strain 1646; format: cell-based, Acinetobacter baumannii; conditions: Acinetobacter baumannii
Experimental: as §1

A. baumannii 1652 [4] = assay: MIC assay, strain 1652; format: cell-based, Acinetobacter baumannii; conditions: Acinetobacter baumannii, strain 1652
Experimental: as §1

A. baumannii 1649 [5] = assay: MIC assay, strain 1649; format: cell-based, Acinetobacter baumannii; conditions: Acinetobacter baumannii, strain 1649
Experimental: as §1

A. baumannii 1651 [6] = assay: MIC assay, strain 1651; format: cell-based, Acinetobacter baumannii; conditions: Acinetobacter baumannii, strain 1651
Experimental: as §1

A. baumannii = assay: MIC assay, A. baumannii isolates (strain not given); format: cell-based, Acinetobacter baumannii; conditions: Acinetobacter baumannii
Experimental: as §1

A. baumannii 1403 [7] = assay: minimal bactericidal concentration (MBC) assay, strain 1403; format: cell-based; conditions: Acinetobacter baumannii, Table 8, read-out: MBC90 1403
Source text: (§2) Lead quinazolines 4, 5, 26, 29, 27, and 30 were selected to be further evaluated for antimicrobial effects. The first assay utilized was a minimal bactericidal concentration (MBC) assay, to assess whether leads compounds were bacteriostatic or bactericidal. The six lead agents were screened to identify their MBC90 towards each of the six A. baumannii isolates used in the SAR studies (Table 8), however for simplicity only the representative data for isolate 1646 is detailed below (Table 6). […] Further to this, we were able to obtain complete eradication of bacterial growth for these two compounds at 1 μM for 24 and 5 μM for 25.
as §1

human HepG2 cells = format: cell-based; conditions: for LD50(HepG2): human, 48 h
Experimental: Cytotoxicity assays were performed using human HepG2 cells (human liver epithelial with hepatocellular carcinoma), as described by us previously.^17,24 Cells were cultured in Dulbecco's modified eagle medium (DMEM), supplemented with 10% fetal bovine serum and 1% penicillin-streptomycin for 3 days at 37° C. and 5% CO2. Cells were then diluted to 1×10^5 ml^−1 using fresh DMEM and added to 96 well tissue culture plates at a volume of 100 μL. Plates were incubated for 24 hours at 37° C. and 5% CO2, allowing the cells to adhere to the plastic. […] Plates were then incubated for 48 hours at 37° C. and 5% CO2. After 48 hours the DMEM was removed and 100 μL of new media was added containing MTT (3-(4, 5-dimethylthiazol-2-yl)-2, 5-diphenyltetrazolium bromide), followed by incubation for four hours at 37° C. and 5% CO2. […] Lead compounds were solvated in 100% DMSO for these studies, which served as the negative control. LD50 values were determined for each compound by comparison to vehicle only controls.

[8] = system: A. baumannii 1651 biofilm; assay: biofilm eradication determination assay, strain 1651; format: cell-based, Acinetobacter baumannii; conditions: 90% biofilm eradication, Table 8
Experimental: (§3) These assays were performed as described by us previously,^26,24 as follows. Each of the A. baumannii strains were grown overnight in Mueller Hinton Broth (MHB). The next day these were used to seed fresh MHB to an OD600 of 0.5, with 150 μL then added to the wells of a 96 well plate and grown for 24 hours at 37° C. After 24 hours, the planktonic bacteria were carefully removed and fresh MHB was added with increasing concentrations of lead quinazolines. After incubation at 37° C. for 24 hours, planktonic cells were removed and biofilms were washed three times with phosphate buffered saline (PBS). Biofilms were then resuspended in PBS and plated for cell viability on tryptic soy agar. Biofilm recovery was assessed compared to no drug controls, and determined as percent eradication. This was used to determine MBEC90 values (Minimal Biofilm Eradication Concentration), where the viability of cells within the biofilm was reduced by 90%.

A. baumannii 1652 [9] = assay: minimal bactericidal concentration (MBC) assay, strain 1652; format: cell-based; conditions: Acinetobacter baumannii, Table 8, read-out: MBC90 1652
Source text: as §2, §1

A. baumannii 1650 [10] = assay: minimal bactericidal concentration (MBC) assay, strain 1650; format: cell-based; conditions: Acinetobacter baumannii, Table 8, read-out: MBC90 1650
Source text: as §2, §1

[11] = system: A. baumannii 1650 biofilm; assay: biofilm eradication determination assay, strain 1650; format: cell-based, Acinetobacter baumannii; conditions: 90% biofilm eradication, Table 8
Experimental: as §3

[12] = system: A. baumannii 1652 biofilm; assay: biofilm eradication determination assay, strain 1652; format: cell-based, Acinetobacter baumannii; conditions: 90% biofilm eradication, Table 8
Experimental: as §3

A. baumannii 1646 [13] = assay: minimal bactericidal concentration (MBC) assay, strain 1646; format: cell-based, Acinetobacter baumannii
Source text: as §2, §1

[14] = system: A. baumannii 1649 biofilm; assay: biofilm eradication determination assay, strain 1649; format: cell-based, Acinetobacter baumannii; conditions: 90% biofilm eradication, Table 8
Experimental: as §3

[15] = system: A. baumannii 1646 biofilm; assay: biofilm eradication determination assay, strain 1646; format: cell-based, Acinetobacter baumannii; conditions: for MBEC90: Table 6, representative data for isolate 1646; for MBEC90 1646: 90% biofilm eradication, Table 8 and text
Experimental: as §3

[16] = system: A. baumannii 1403 biofilm; assay: biofilm eradication determination assay, strain 1403; format: cell-based, Acinetobacter baumannii; conditions: 90% biofilm eradication, Table 8
Experimental: as §3

A. baumannii 1649 [17] = assay: minimal bactericidal concentration (MBC) assay, strain 1649; format: cell-based; conditions: Acinetobacter baumannii, Table 8, read-out: MBC90 1649
Source text: as §2, §1

A. baumannii 1651 [18] = assay: minimal bactericidal concentration (MBC) assay, strain 1651; format: cell-based; conditions: Acinetobacter baumannii, Table 8, read-out: MBC90 1651
Source text: as §2, §1

[19] = Tables 1, 3, 4, 5 and footnotes, read-out: 1650 MIC
[20] = Tables 1, 3, 4, 5 and footnotes, read-out: 1403 MIC
[21] = strain 1646, Tables 1, 3, 4, 5 and footnotes, read-out: 1646 MIC
[22] = Tables 1, 3, 4, 5 and footnotes, read-out: 1652 MIC
[23] = Tables 1, 3, 4, 5 and footnotes, read-out: 1649 MIC
[24] = Tables 1, 3, 4, 5 and footnotes, read-out: 1651 MIC
[25] = strain not given, read-out: MIC
[26] = lead quinazolines, Table 8, read-out: MIC 1650
[27] = lead quinazolines, Table 8, read-out: MIC 1403
[28] = at 25 μM (highest concentration tested)
[29] = Table 6, representative data for isolate 1646, read-out: MIC
[30] = strain 1646, lead quinazolines, Table 8, read-out: MIC 1646
[31] = lead quinazolines, Table 8, read-out: MIC 1652
[32] = Acinetobacter baumannii, 1646, strain 1646, Table 8 and text, read-out: MBC90 1646
[33] = Acinetobacter baumannii, Table 6, representative data for isolate 1646, read-out: MBC90
[34] = lead quinazolines, Table 8, read-out: MIC 1649
[35] = lead quinazolines, Table 8, read-out: MIC 1651

| SMILES | MIC (A. baumannii 1650 [1]; [19]) | MIC (A. baumannii 1403 [2]; [20]) | MIC (A. baumannii 1646 [3]; [21]) | MIC (A. baumannii 1652 [4]; [22]) | MIC (A. baumannii 1649 [5]; [23]) | MIC (A. baumannii 1651 [6]; [24]) | MIC (A. baumannii; [25]) | MIC (A. baumannii 1650 [1]; [26]) | MIC (A. baumannii 1403 [2]; [27]) | MBC (A. baumannii 1403 [7]) | HepG2 cell viability (human HepG2 cells; [28]) | LD50(HepG2) (human HepG2 cells) | MIC (A. baumannii 1646 [3]; [29]) | MIC (A. baumannii 1646 [3]; [30]) | MBEC90 1651 [8] | MBC (A. baumannii 1652 [9]) | MBC (A. baumannii 1650 [10]) | MBEC90 1650 [11] | MBEC90 1652 [12] | MIC (A. baumannii 1652 [4]; [31]) | also measured |
| --- | --- | --- | --- | --- | --- | --- | --- | --- | --- | --- | --- | --- | --- | --- | --- | --- | --- | --- | --- | --- | --- |
| CNc1nc(NCCc2ccccc2)nc2ccc(Br)cc12 [Compound 19, 6-Bromo-N^4-methyl-N^2-phenethylquinazoline-2,4-diamine] | > 50 µM | > 50 µM | 2 µM (≈ 0.715 µg/mL) | > 50 µM | > 50 µM | 10 µM (≈ 3.57 µg/mL) | 2 to 4 µM (≈ 0.715 to 1.43 µg/mL) | – | – | – | – | – | – | – | – | – | – | – | – | – | – |
| CNc1nc(NCCc2ccccc2)nc2ccc(C)cc12 [Compound 20, N^4,6-Dimethyl-N^2-phenethylquinazoline-2,4-diamine] | > 50 µM | > 50 µM | 2 µM (≈ 0.585 µg/mL) | > 50 µM | > 50 µM | 10 µM (≈ 2.92 µg/mL) | 2 to 4 µM (≈ 0.585 to 1.17 µg/mL) | – | – | – | – | – | – | – | – | – | – | – | – | – | – |
| CCC/C=C/c1ccc2nc(NCc3ccccc3)nc(NC)c2c1 [Compound 26, (E)-N^2-Benzyl-N^4-methyl-6-(pent-1-en-1-yl)quinazoline-2,4-diamine] | 25 µM (≈ 8.31 µg/mL) | 10 µM (≈ 3.32 µg/mL) | 2 µM (≈ 0.665 µg/mL) | 30 µM (≈ 9.97 µg/mL) | 10 µM (≈ 3.32 µg/mL) | 2 µM (≈ 0.665 µg/mL) | – | 25 µM (≈ 8.31 µg/mL) | 10 µM (≈ 3.32 µg/mL) | 40 µM (≈ 13.3 µg/mL) | 41% | 16 µM | 1 µM (≈ 0.332 µg/mL) | 1 µM (≈ 0.332 µg/mL) | 24 µM | 23 µM (≈ 7.65 µg/mL) | 16 µM (≈ 5.32 µg/mL) | 50 µM | 97 µM | 30 µM (≈ 9.97 µg/mL) | HepG2 cell viability (human HepG2 cells; at 12 μM): 49%; MBC (A. baumannii 1646 [13]; [32]): 1.8 µM (≈ 0.598 µg/mL); MBC (A. baumannii 1646 [13]; [33]): 1.8 µM (≈ 0.598 µg/mL); complete bacterial eradication concentration as multiple of MIC (A. baumannii 1646 [13]; isolate 1646): 5 ×; concentration giving complete eradication of bacterial growth (A. baumannii 1646 [13]; isolate 1646): 5 µM; MBEC90 1649 [14]: 63 µM; MBEC90 [15]: 8.9 µM; reduction in biofilm viability ([15]; at 50 μM, strain 1646): 1.4 log; MBEC90 1646 ([15]; strain 1646): 8.9 µM; MIC (A. baumannii 1649 [5]; [34]): 10 µM (≈ 3.32 µg/mL); MBEC90 1403 [16]: 24 µM; MIC (A. baumannii 1651 [6]; [35]): 2 µM (≈ 0.665 µg/mL); MBC (A. baumannii 1649 [17]): 10 µM (≈ 3.32 µg/mL); MBC (A. baumannii 1651 [18]): 5.7 µM (≈ 1.89 µg/mL) |
| CCCCCc1ccc2nc(NCc3ccccc3)nc(NC)c2c1 [Compound 27, N^2-Benzyl-N^4-methyl-6-pentylquinazoline-2,4-diamine] | 2 µM (≈ 0.669 µg/mL) | 2 µM (≈ 0.669 µg/mL) | 2 µM (≈ 0.669 µg/mL) | 10 µM (≈ 3.34 µg/mL) | 2 µM (≈ 0.669 µg/mL) | 2 µM (≈ 0.669 µg/mL) | – | 10 µM (≈ 3.34 µg/mL) | 15 µM (≈ 5.02 µg/mL) | 20 µM (≈ 6.69 µg/mL) | 31% | 12 µM | 1 µM (≈ 0.334 µg/mL) | 1 µM (≈ 0.334 µg/mL) | 18 µM | 23 µM (≈ 7.69 µg/mL) | 20 µM (≈ 6.69 µg/mL) | 49 µM | 64 µM | 20 µM (≈ 6.69 µg/mL) | MBC (A. baumannii 1646 [13]; [32]): 1.1 µM (≈ 0.368 µg/mL); MBC (A. baumannii 1646 [13]; [33]): 1.1 µM (≈ 0.368 µg/mL); MBEC90 1649 [14]: 62 µM; MBEC90 [15]: 11.5 µM; MBEC90 1646 ([15]; strain 1646): 12 µM; MIC (A. baumannii 1649 [5]; [34]): 10 µM (≈ 3.34 µg/mL); MBEC90 1403 [16]: 12 µM; MIC (A. baumannii 1651 [6]; [35]): 10 µM (≈ 3.34 µg/mL); MBC (A. baumannii 1649 [17]): 43 µM (≈ 14.4 µg/mL); MIC (A. baumannii; most isolates besides the 1652 strain, read-out: MIC against most isolates): 2 µM (≈ 0.669 µg/mL); MBC (A. baumannii 1651 [18]): 4.1 µM (≈ 1.37 µg/mL) |
